We go through two compounds from patent US20250108099A1, “Ovomucoid for use in a method of managing blood coagulation” (Solution Shop AG, priority 2022, published 2025).

Holding throughout (format): biochemical
The target in experiment [1] is T1, plasmin (Homo sapiens, UniProt P00747).
T1 construct: a buffered plasmin solution was used
Put plainly: Plasmin inhibition in buffered plasmin solution with chromogenic substrate S-2251 (Example 2). The conditions noted are these: 37° C. How it is done: In order to analyse plasmin inhibition a buffered plasmin solution was used. The solution was incubated with duck egg ovomucoid or cyklocapron as a control. The solutions were incubated at 37° C. and the chromogenic plasmin substrate S-2251 was added and plasmin activity was measured.

Experiment [2] has as its system Thrombin generation. The experiment is described as follows: Thrombin generation (calibrated automated thrombogram) in normal non-defibrinated plasma, presence of endogenous fibrinogen. The conditions noted are these: for effect on extrinsic-thrombin generation: extrinsic (5 pM TF), ovomucoid/Trasylol 50-350 U/ml, Cyklokapron 1-8 mg; for effect on thrombin generation / coagulation system: low TF concentration (0.5 pM). The source says: (§1) This pilot bioequivalence study aims at investigating the effect of duck egg ovomucoid on the clotting system and assessed its activity against the known anti-thrombolytic agents (Trasylol® “aprotinin” and Cyklokapron” “transamic acid”) by means of the calibrated automated thrombogram (CAT). The CAT method is a functional sensitive assay which detects any hyper- or hypocoagulability in the clotting system, disorders in platelet function and follows up therapy with anti-haemophilia supplements, anticoagulants and antithrombotics.
(§2) An optimal concentration of procoagulant phospholipids was used (4 μM). Two concentrations of tissue factor (TF) were added, 5 pM to study the classical extrinsic pathway and 0.5 pM to explore a pathway in which also the antihaemophilic factors (Factor VIII and IX) play a role.
Normally fibrin (-ogen) is present during thrombin generation, therefore the above experiments were carried out in normal non-defibrinated plasma. Extrinsic-thrombin generation was conducted in normal plasma spiked with increasing amounts of duck egg ovomucoid (50-350 U/ml) and compared to Trasylol (50-350 U/ml) and to Cyklokapron (1-8 mg).

Experiment [3] concerns Thrombin generation. Put plainly: Thrombin generation (calibrated automated thrombogram) in defibrinated normal pooled plasma, absence of fibrinogen. The conditions noted are these: 0.5 pM TF, ovomucoid/Trasylol 50-350 U/ml, Cyklokapron 1-8 mg/ml.
Excerpt: as §1
In a fibrinolytic patient fibrin is unstable.
as §2

T1 sequence (P00747 97-580 limits assumed): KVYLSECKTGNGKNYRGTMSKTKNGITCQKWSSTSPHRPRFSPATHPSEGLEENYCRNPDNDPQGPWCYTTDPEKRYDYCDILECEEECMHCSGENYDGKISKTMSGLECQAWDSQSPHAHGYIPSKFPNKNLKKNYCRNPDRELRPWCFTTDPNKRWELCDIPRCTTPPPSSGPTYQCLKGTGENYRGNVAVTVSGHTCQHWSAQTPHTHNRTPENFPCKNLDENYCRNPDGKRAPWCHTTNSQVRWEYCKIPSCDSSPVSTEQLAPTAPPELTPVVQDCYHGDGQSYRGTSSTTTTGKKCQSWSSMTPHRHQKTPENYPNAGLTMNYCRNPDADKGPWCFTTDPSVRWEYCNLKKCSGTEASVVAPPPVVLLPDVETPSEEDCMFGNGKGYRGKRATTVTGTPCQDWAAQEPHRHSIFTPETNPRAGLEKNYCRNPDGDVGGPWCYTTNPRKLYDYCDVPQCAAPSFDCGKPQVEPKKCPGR
T1 sequence (P00747 581-810 limits assumed): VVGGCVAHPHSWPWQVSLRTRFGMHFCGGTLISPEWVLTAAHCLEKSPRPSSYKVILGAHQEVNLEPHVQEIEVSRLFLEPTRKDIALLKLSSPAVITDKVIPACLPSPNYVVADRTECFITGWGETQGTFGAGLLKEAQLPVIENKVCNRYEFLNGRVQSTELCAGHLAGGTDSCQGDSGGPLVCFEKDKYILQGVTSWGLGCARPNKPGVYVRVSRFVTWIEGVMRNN

For the compound `NC[C@H]1CC[C@H](C(=O)O)CC1` [Cyklokapron, transamic acid], the “inhibitory effect on plasmin” value in experiment [1] is listed as “inhibitory effect on plasmin”. For the same compound, in experiment [2], the “effect on extrinsic-thrombin generation” value was “hardly any activity” and the “effect on thrombin generation / coagulation system” value is reported as “procoagulant”. Besides, the “effect on thrombin generation” value in experiment [3] was “increased the thrombin generation in a dose-dependent manner”.

Take aprotinin [Trasylol]: in experiment [2], the “effect on extrinsic-thrombin generation” value was “hardly any activity” and the “effect on thrombin generation / coagulation system” value is “dose-dependently anticoagulant”. In addition, in experiment [3], the “effect on thrombin generation” value is recorded as “inhibited thrombin generation dose-dependently”.
